From patent publication US8623846B2, “Diazeniumdiolate cyclohexyl derivatives” (Merck Sharp & Dohme Corp., priority 2010, dated 2014)

Tested on: Male beagle dogs
Test: canine telemetry protocol, blood pressure reduction efficacy
Format: in vivo
Details: change from baseline, 3 mg/kg oral gavage; for ΔPP (mm Hg) 1-6 h / ΔPP (mm Hg) 6-12 h / ΔPP (mm Hg) 12-18 h: pulse pressure; for ΔSBP (mm Hg) 1-6 h / ΔSBP (mm Hg) 6-12 h / ΔSBP (mm Hg) 12-18 h: systolic blood pressure
Procedure: Compounds of the invention were evaluated for blood pressure reduction efficacy using the following canine telemetry protocol described below.
Male beagle dogs (approximately 1-3 years old) with a body weight of between 10 and 16 kg were surgically implanted with DSI radiotelemetry devices (model: TL11M2-D70-PCT). Briefly, under an inhalant anesthesia, isoflurane/oxygen mixture (1-3.5%/to effect), the body of the telemetry device was positioned and secured intra-abdominally. Subsequently, the arterial catheter of the telemetry device was passed subcutaneously to the inguinal area and introduced into the femoral artery and advanced to the level of the descending aorta. The catheter was secured with 2-0 silk ligatures. The muscle and underlying fascia was closed over the catheter using absorbable suture and the skin was closed using non-absorbable suture. The animals were allowed a minimum recovery period of 2 weeks between surgery and the evaluation of test compounds.
Compound evaluation consisted of a 3 day paradigm at a 3 mg/kg dose. On the first day, no compounds were administered during a 24 hour period of baseline data collection. Blood pressure and heart rate data were collected continuously for one minute periods at 10 minute intervals. On the days of compound administration half the animals received test article with the other half receiving the vehicle used for compound formulation. All test materials were administered by oral gavage in a volume of 1 mL/kg. Data are expressed either as raw values (mm Hg or beats per minute) or as the change from baseline (average value for about 12 hours in low activity period prior to dosing). Change is SBP (systolic blood pressure) and PP (pulse pressure) over time is shown below: […]

Compound	ΔPP (mm Hg) 1-6 h	ΔPP (mm Hg) 6-12 h	ΔPP (mm Hg) 12-18 h	ΔSBP (mm Hg) 1-6 h	ΔSBP (mm Hg) 6-12 h	ΔSBP (mm Hg) 12-18 h
CCN(/[N+]([O-])=N/O[C@H]1CC[C@@H](C(=O)O)CC1)C(C)(C)C [Example 1, Cis-4-({[(1Z)-2-tert-butyl-2-ethyl-1-oxido-1λ^5-diazan-1-ylidene]amino}oxy)-cyclohexanecarboxylic acid]	−1 mm Hg	−6 mm Hg	−1 mm Hg	−9 mm Hg	−5 mm Hg	−1 mm Hg
CCN(/[N+]([O-])=N/O[C@H]1CC[C@H](C(=O)O)CC1)C(C)(C)C [Example 2, Trans-4-({[(1Z)-2-tert-butyl-2-ethyl-1-oxido-1λ^5-diazan-1-ylidene]amino}oxy)-cyclohexanecarboxylic acid]	−9 mm Hg	−9 mm Hg	−7 mm Hg	−14 mm Hg	−10 mm Hg	−9 mm Hg
CCCCN(/[N+]([O-])=N/O[C@H]1CC[C@H](C(=O)O)CC1)C(C)(C)C [Example 8, Trans-4-({[(1Z)-2-butyl-2-tert-butyl-1-oxido-1λ^5-diazan-1-ylidene]amino}oxy)-cyclohexanecarboxylic acid]	−11 mm Hg	−15 mm Hg	−12 mm Hg	−14 mm Hg	−14 mm Hg	−8 mm Hg
CN(/[N+]([O-])=N/O[C@H]1CC[C@@H](C(=O)O)CC1)C(C)(C)C [Example 3, Cis-4-({[(1Z)-2-tert-butyl-2-methyl-1-oxido-1λ^5-diazan-1-ylidene]amino}oxy)-cyclohexanecarboxylic acid]	−7 mm Hg	−8 mm Hg	−5 mm Hg	−8 mm Hg	−10 mm Hg	−5 mm Hg
CN(/[N+]([O-])=N/O[C@H]1CC[C@H](C(=O)O)CC1)C(C)(C)C [Example 6, Trans-4-({[(1Z)-2-tert-butyl-2-methyl-1-oxido-1λ^5-diazan-1-ylidene]amino}oxy)-cyclohexanecarboxylic acid]	−12 mm Hg	−4 mm Hg	−2 mm Hg	−18 mm Hg	−4 mm Hg	−2 mm Hg
